Values after ≈ are worked out from the molar mass of the structure shown.
Experiments:
Candida albicans = test: Antimycotic in-vitro activity, serial dilution test (MIC); type: cell-based; details: Candida albicans, meat extract-glucose broth, 20°C, 24 to 96 hours, inoculum 5 x 10^4 germs/ml; read-out: MHK-Werte in γ/ml Nährmedium, Candida albicans
Description: (§1) Die in-vitro-Prüfungen wurden im Reihenverdünnungstest mit Keiminokula von durchschnittlich 5 x 10^4 Keimen/ml Substrat durchgeführt. Als Nährmedium dienten • a) für Dermatophyten und Schimmelpilze: Sabourand's milieu d'epreuve • b) für Hefen: Fleischextrakt-Traubenzucker-Bouillon.
(§2) Die Bebrütungstemperatur betrug 20°C, die Bebrütungsdauer lag bei 24 bis 96 Stunden bei Hefen und 96 Stunden bei Dermatophyten und Schimmelpilzen.

Microsporum canis = test: as above; type: cell-based; details: Sabouraud medium, 20°C, inoculum 5 x 10^4 germs/ml; for MIC: Microsporum canis, 96 h, read-out: MHK-Werte in γ/ml Nährmedium, Microsporum canis
Description: as §1, §2

Torulopsis glabrata = test: as above; type: cell-based; details: meat extract-glucose broth, 20°C, 24 to 96 hours, inoculum 5 x 10^4 germs/ml; for MIC: Nakaseomyces glabratus, read-out: MHK-Werte in γ/ml Nährmedium, Torulopsis glabrata
Description: as §1, §2

[1] = tested on: Dermatophyten und Schimmelpilze, Hefen; test: Antimycotic in-vitro activity, serial dilution test, overall comparison with known compounds; type: cell-based; details: compared with known compounds (A),(B),(C) and (D)
Description: as §1, §2

Trichophyton mentagr. = test: Antimycotic in-vitro activity, serial dilution test (MIC); type: cell-based, Trichophyton mentagrophytes; details: Trichophyton; Sabouraud medium, 20°C, 96 hours, inoculum 5 x 10^4 germs/ml; read-out: MHK-Werte in γ/ml Nährmedium, Trichophyton mentagr.
Description: as §1, §2

Aspergillus fumig. = test: as above; type: cell-based, Aspergillus fumigatus; details: Aspergillus, 96 h, Sabouraud medium, 20°C, inoculum 5 x 10^4 germs/ml, read-out: MHK-Werte in γ/ml Nährmedium, Aspergillus fumig.
Description: as §1, §2

Candida-Zellen = test: Antimycotic in-vivo activity (oral) in mouse candidosis; set-up: species or system Mäuse vom Typ SPF-CF1; key: +++++: sehr gute Wirkung = 90 % Ueberlebende am 6.Tag p.i.; ++++: gute Wirkung = 80 % Ueberlebende am 6.Tag p.i.; +++: Wirkung = 60 % Ueberlebende am 6.Tag p.i.; ++: schwache Wirkung = 40 % Ueberlebende am 6.Tag p.i.; +: Spur Wirkung; k.W.: keine Wirkung
Description: Mäuse vom Typ SPF-CF1 wurden intravenös mit 1 - 2 x 10^6 logarithmisch wachsenden Candida-Zellen, die in physiologischer Kochsalzlösung suspendiert werden, infiziert. Eine Stunde vor und sieben Stunden nach der Infektion werden die Tiere mit jeweils 50 - 100 mg/kg Körpergewicht der Präparate oral behandelt.
Uhbehandelte Tiere starben 3 bis 6 Tage post infektionem. Die Ueberlebensrate am 6.Tag post infektionem betrug bei uhbehandelten Kontrolltieren etwa 5 %.
• +++++ = sehr gute Wirkung = 90 % Ueberlebende am 6.Tag p.i. • ++++ = gute Wirkung = 80 % Ueberlebende am 6.Tag p.i. • +++ = Wirkung = 60 % Ueberlebende am 6.Tag p.i. • ++ = schwache Wirkung = 40 % Ueberlebende am 6.Tag p.i. • + = Spur Wirkung = k.W. = keine Wirkung

[2] = mice infected i.v. with 1 - 2 x 10^6 Candida cells, oral 50 - 100 mg/kg one hour before and seven hours after infection, survivors on day 6 p.i.
[3] = mouse candidosis, oral, compared with known compounds (A), (B), (C) and (D)

Compound | MIC (Candida albicans) [µg/mL] | MIC (Microsporum canis) [µg/mL] | MIC (Torulopsis glabrata) [µg/mL] | antimykotische Wirkung [1] | MIC (Trichophyton mentagr.) [µg/mL] | MIC (Aspergillus fumig.) [µg/mL] | Wirkung (Candida-Zellen; [2]) | Wirkung (Candida-Zellen; [3]) | MHK-Werte in γ/ml Nährmedium, Microsporum canis (Microsporum canis; 96 hours) [µg/mL] | MHK-Werte in γ/ml Nährmedium, Torulopsis glabrata (Torulopsis glabrata) [µg/mL]
CC(n1cncn1)C(C)(O)c1ccc(Oc2ccc(Cl)cc2)cc1 (stereo not shown) [Beispiel 44] | < 1 | 32 (≈ 93.1 µM) | > 64 | bessere antimykotische Wirkung | < 1 | > 64 | – | – | – | –
CCC(C(O)c1ccc(Oc2ccc(Cl)cc2)cc1)n1ccnc1 (stereo not shown) [Beispiel 70] | < 1 | 8 (≈ 23.3 µM) | < 1 | bessere antimykotische Wirkung | 2 (≈ 5.83 µM) | 16 (≈ 46.7 µM) | + | bessere Wirkung | – | –
OC(Cn1cncn1)c1ccc(Oc2ccc(Cl)cc2)cc1 (stereo not shown) [Beispiel 49] | < 1 | 4 (≈ 12.7 µM) | 16 (≈ 50.7 µM) | bessere antimykotische Wirkung | < 1 | 16 (≈ 50.7 µM) | – | – | – | –
CCCC(C(=O)c1ccc(Oc2ccc(Cl)cc2)cc1)n1ccnc1 (stereo not shown) [Beispiel 25] | < 1 | 8 (≈ 22.5 µM) | < 1 | bessere antimykotische Wirkung | < 1 | < 1 | – | – | – | –
CC(C(=O)c1ccccc1)n1cncn1 (stereo not shown) [(A), reference compound] | > 64 | – | – | – | > 64 | – | k.W. | – | – | –
CC(C)C(C(=O)c1ccc(Oc2ccc(Cl)cc2)cc1)n1cncn1 (stereo not shown) [Beispiel 13] | 64 (≈ 180 µM) | 8 (≈ 22.5 µM) | – | bessere antimykotische Wirkung | 4 (≈ 11.2 µM) | 8 (≈ 22.5 µM) | – | – | – | –
CCCCC(C(O)c1ccc(Oc2ccc(Cl)cc2)cc1)n1cncn1 (single isomer, unassigned) [Beispiel 33] | < 1 | – | – | bessere antimykotische Wirkung | < 1 | 64 (≈ 172 µM) | +++++ (sehr gute Wirkung = 90 % Ueberlebende am 6.Tag p.i.) | bessere Wirkung | 8 | <1
CCCC(C(O)c1ccc(Oc2ccc(Cl)cc2)cc1)n1ccnc1 (stereo not shown) [Beispiel 74] | < 1 | 8 (≈ 22.4 µM) | < 1 | bessere antimykotische Wirkung | < 1 | 64 (≈ 179 µM) | – | – | – | –
CC(C(O)c1ccc(Oc2ccc(Cl)cc2Cl)cc1)n1cncn1 (stereo not shown) [Beispiel 41] | < 1 | 16 (≈ 43.9 µM) | 8 (≈ 22 µM) | bessere antimykotische Wirkung | 4 (≈ 11 µM) | 32 (≈ 87.9 µM) | – | – | – | –
CCC(C(=O)c1ccc(Oc2ccc(Cl)cc2)cc1)n1cncn1 (stereo not shown) [Beispiel 7] | 16 (≈ 46.8 µM) | 2 (≈ 5.85 µM) | 64 (≈ 187 µM) | bessere antimykotische Wirkung | 4 (≈ 11.7 µM) | 32 (≈ 93.6 µM) | – | – | – | –
CC(C(O)c1ccc(Cl)cc1)n1cncn1 (stereo not shown) [(C), reference compound] | > 64 | – | – | – | > 64 | – | k.W. | – | – | –
COCCC(C(O)c1ccc(Oc2ccc(Cl)cc2)cc1)n1cncn1 (stereo not shown) [Beispiel 39] | < 1 | 16 (≈ 42.8 µM) | 4 (≈ 10.7 µM) | bessere antimykotische Wirkung | 4 (≈ 10.7 µM) | 16 (≈ 42.8 µM) | – | – | – | –
CC(C(O)c1ccc(Oc2ccc(Cl)cc2)cc1)n1ccnc1 (stereo not shown) [Beispiel 71] | < 1 | – | 2 (≈ 6.08 µM) | bessere antimykotische Wirkung | 8 (≈ 24.3 µM) | 16 (≈ 48.7 µM) | +++ (Wirkung = 60 % Ueberlebende am 6.Tag p.i.) | bessere Wirkung | – | –
OC(Cn1cncn1)c1ccc(Oc2ccc(Cl)cc2Cl)cc1 (stereo not shown) [Beispiel 48] | < 1 | 4 (≈ 11.4 µM) | 2 (≈ 5.71 µM) | bessere antimykotische Wirkung | < 1 | 16 (≈ 45.7 µM) | – | – | – | –

— patent publication EP0084597A1, “Triazole and imidazole derivatives and pharmaceutical preparations containing them” (BAYER AG, priority 1981, dated 1983)
